In patent US20130156845A1, “LIPID FORMULATED SINGLE STRANDED RNA” (ALNYLAM PHARMACEUTICALS, INC., priority 2010, published 2013):
Strand notation (5' to 3'): a small letter for the sugar, then the base; units joined by * are phosphorothioate-linked, units joined directly phosphodiester-linked; [ ] holds rarer units or linkages, { } end groups; capitals alone tell only the bases. {PS2} = PS2 group (structure drawn in the publication); {PS} = PS group (structure drawn in the publication); e = 2'-O-(2-methoxyethyl) (MOE); m = 2'-O-methyl; {P} = phosphate; f = 2'-fluoro

Assays:
[1] = test system: PTEN; test: In vivo evaluation of ssRNA formulated in lipid particle LNP06, liver PTEN mRNA (Example 77); design: species or system mouse; details: ssRNA formulated in LNP06, 4.5 mg/kg tail vein, C57BL/6 mice, liver PTEN mRNA normalized to GAPDH, 2 days post injection
Description: In accordance with the present disclosure, oligomeric compounds were synthesized and tested for their ability to reduce PTEN. C57BL/6 mice (Charles River Labs, MA) received either saline or LNP formulated single stranded RNA via tail vein injection at a volume of 0.01 mL/g and the single stranded RNA dose is 4.5 mg/kg. 25 groups of female mice and 9 modified ssRNAs targeting PTEN were formulated in LNP06 and tested. To determine liver mRNA levels of PTEN, 2 days post injection, animals were sacrificed and livers were harvested and snap frozen in liquid nitrogen. Liver lysates were prepared from the frozen tissues and liver mRNA levels of PTEN normalized to GAPDH were quantified using a branched DNA assay (QuantiGene Assay, Panomics, Calif.).

[2] = ssRNA stability in hepatocyte cell homogenate assay (Example 65); format: in vitro ADME; details: mouse hepatocyte homogenate, LC-MS
Description: Hepatocytes were harvested from bal/c mice in ice-cold hepatocyte wash media (William E Media) with fetal bovine serum, sedimented by centrifugation at 1000 g for 8 minutes and then washed with hepatocyte wash media. Hepatocytes were homogenized with RIPA buffer (50 mM Tris pH 7.5, 10 mM MgCl2, 150 mM NaCl, 0.5% NP-40 alternative, one tablet of Roche protease inhibitor #11836170001), and centrifuged at 14000 g for 15 minutes at 4° C. and the supernatant was removed and stored in ice. Protein concentration (BSA mg/mL) was determined with Bradford assay and adjusted to a final protein concentration of 2 mg/mL by addition of Ripa buffer volume or cell homogenate volume.
[…] were homogenized in a homogenation buffer (20 mM Tris, pH 8, 20 mM EDTA and 0.1 M NaCl in 0.5% NP-40) at time points 0, 5, 10, 20, 30, 40 and 60 minutes (Exception: 06/408877 at time points 0, 15, 30, 60, 120 and 240 mins, 06/409044, at time points 0, 0.5, 1, 2, 4, 8, and 18 hours). An internal standard (18/355868, a 27-mer, 2′-O-methoxyethyl-modified phosphorothioate oligonucleotide, or 19/116847, a 5-10-5 gappmer, 2′-O-methoxyethyl-modified phosphorothioate oligonucleotide) with concentration at 20 ug/g was added prior to extraction. Tissue samples were extracted with 70 μL of NH4OH and 240 μL of phenol/chloroform/isoamyl alcohol (25:24:1). The supernatant was removed after centrifugation at 14000 rpm for 2 min. The remaining extractant was vortexed with an additional […] of water and the aqueous layer was removed and combined with the supernatant after centrifugation at 14000 rpm for 2 minutes.
Triethylammonium acetate solution at 1M ([…]) was added to the supernatant. The aqueous layer of the mixture was loaded onto the pre-conditioned Biotage™ Phenyl Solid Phase Extraction Plate (SPE plate) after centrifugation at 9000 rpm for 20 minutes. The SPE plate was washed several times with water. The sample was then eluted with 1.5 mL of 1% TEA in 90% MeOH and filtered through the Protein Precipitation Plate (Phenomenex™). The elutent was evaporated to dryness and diluted to 200 μL with 50% quenching buffer (8 M urea, 50 mM EDTA) and water before sample injection.
An Agilent 1100 Series LC/MSD system was connected in-line to a mass spectrometry. Mass spectrometer was operated in the electrospray negative ionization mode. The nebulizer nitrogen gas was set at […] and the drying nitrogen gas was set at 12 L/min. The drying temperature was 325° C. Samples (25 μL/well) were introduced via an auto sampler and reversed-phase chromatography was carried out with an XBridge OST C18 2.5 μm 2.1 mm×50 mm HPLC column using a flow rate of 300 μL/min at 55° C. The ion pair buffers consisted of A: 5 mM tributylammonium acetate (TBAA) in 20% acetonitrile and B: […] TBAA in 90% acetonitrile and the loading buffer was 25 mM TBAA in 25% Acetonitrile. Separation was performed on a 30% to 70% B in 9 min and then 80% B in 11 min gradient.
Quantitative analysis of oligonucleotide and internal standard by extracted ion chromatograms of the most abundant ions was performed using MSD ChemStation software. The results are expressed as half-time (T1/2) in the table below.

[3] = test system: PTEN; test: PTEN mRNA reduction in HeLa cells, dose response (Example 64); format: cell-based, human; details: real-time PCR, 1.56-50 nM
Description: A dose response experiment was performed targeting PTEN in human HeLa cells to determine the effects of placement of sugar and internucleoside linkages within ssRNAs. More specifically, the modified ssRNAs were tested for their ability to reduce PTEN mRNA in cultured cells. The modified ssRNAs are shown below, and contain 2′-OMe and 2′-fluoro modified nucleosides, two 2′-O-MOE modified nucleosides at the 3′-terminus, and seven phosphorothioate linkages at the 3′-terminus of the ssRNAs.
HeLa cells were treated with ssRNAs shown below at concentrations of 1.56 nM, 3.13 nM, 6.25 nM, 12.5 nM, […] and 50 nM using methods described herein. Levels of mRNA were determined using real-time PCR methods as described herein. The IC50 for each ssRNA was determined.

**Q.** Which “% Kd” value [1] does the source give for “P-TmoeUfGmUfCmUfCmUfGmGfUmCfCmUfUmAfCmUfUmAeAe (antisense {P}-eT*fU*mGfU*mCfU*mCfU*mGfG*mUfC*mCfU*mU*fA*mC*fU*mU*eA*eA) [A-53286, modified ssRNA targeting PTEN]” here?
**A.** 67%

**Q.** With “P-USSUfGmUfCmUfCmUfGmGfUmCfCmUfUmAfCmUfUmAeAe (antisense TUGUCUCUGGUCCUUACUUAA; 5'-phosphate, 2'-F/2'-OMe, MOE modifications, chemistry not fully specified) [ISIS 467088, modified ssRNA targeting PTEN]” as the substance, how does the “% Kd” value [1] read?
**A.** 50%

**Q.** For “P-UfUfGfUfCfUfCmUfGmGfUmCfCmUfUmAfCmUfUmTeTe (antisense UUGUCUCUGGUCCUUACUUTT; 5'-phosphate, modified nucleotides, chemistry not fully specified) [ISIS 409049, modified ssRNA targeting PTEN]”, which “T1/2 Test 1” value [2] is on record?
**A.** 13 min

**Q.** And the IC50 [3]?
**A.** 16.2 nM

**Q.** With “P-UfUfGfUfCfUmCmUfGfGmUmCfCfUfUfAfCmUmUmAeAe (antisense UUGUCUCUGGUCCUUACUUAA; sugars from the 5' end fffffmmffmmfffffmmmee, 5' {P}, backbone not given here) [ISIS 408874, modified ssRNA targeting PTEN]” as the substance, how does the “T1/2 Test 1” value [2] read?
**A.** 22 min

**Q.** What about the “T1/2 Test 2” value [2] of the same substance?
**A.** 18 min

**Q.** And the IC50 [3]?
**A.** 6 nM

**Q.** Which “T1/2 Test 1” value [2] does the source give for “P-UfUfGfUfCfUmCmUfGfGmUmCfCfUfUfAfCmUmUmTeTe (antisense UUGUCUCUGGUCCUUACUUTT; 5'-phosphate, modified nucleotides, chemistry not fully specified) [ISIS 409062, modified ssRNA targeting PTEN]” here?
**A.** 17 min

**Q.** What about the IC50 [3] of the same substance?
**A.** 8.6 nM

**Q.** Which “T1/2 Test 1” value [2] does the source give for “P-UmUfGfUfCfUmCmUfGfGmUmCfCfUfUfAfCmUmUmAeAe (antisense UUGUCUCUGGUCCUUACUUAA; sugars from the 5' end mffffmmffmmfffffmmmee, 5' {P}, backbone not given here) [ISIS 408877, modified ssRNA targeting PTEN]” here?
**A.** 30 min

**Q.** What about the “T1/2 Test 2” value [2] of the same substance?
**A.** 24 min

**Q.** What about the IC50 [3] of the same substance?
**A.** 7 nM

**Q.** For “P-UmUfGmUfCmUfCmUfGmGfUmCfCmUfUmAfCmUfUmAeAe (antisense UUGUCUCUGGUCCUUACUUAA; sugars from the 5' end mfmfmfmfmfmfmfmfmfmee, 5' {P}, backbone not given here) [ISIS 409044, modified ssRNA targeting PTEN]”, which “T1/2 Test 1” value [2] is on record?
**A.** 240 min

**Q.** And the “T1/2 Test 2” value [2]?
**A.** 258 min

**Q.** And the IC50 [3]?
**A.** 10.5 nM

**Q.** Which “% Kd” value [1] does the source give for “PS2-TmoeUfGmUfCmUfCmUfGmGfUmCfCmUfUmAfCmUfUmAeAe (antisense {PS2}-eT*fU*mGfU*mCfU*mCfU*mGfG*mUfC*mCfU*mU*fA*mC*fU*mU*eA*eA) [A-59890, modified ssRNA targeting PTEN]” here?
**A.** 31%

**Q.** With “PS-TmoeUfGmUfCmUfCmUfGmGfUmCfCmUfUmAfCmUfUmAeAe (antisense {PS}-eT*fU*mGfU*mCfU*mCfU*mGfG*mUfC*mCfU*mU*fA*mC*fU*mU*eA*eA) [A-59889, modified ssRNA targeting PTEN]” as the substance, how does the “% Kd” value [1] read?
**A.** 45%

**Q.** For “UfUfGfUfCfUfCmUfGmGfUmCfCmUfUmAfCmUfUmAeAe (UUGUCUCUGGUCCUUACUUAA; sugars from the 5' end ffffffmfmfmfmfmfmfmee, backbone not given here) [ISIS 407047, modified ssRNA targeting PTEN]”, which “T1/2 Test 1” value [2] is on record?
**A.** 6 min

**Q.** What about the IC50 [3] of the same substance?
**A.** 3.5 nM
